Among the data in PMC6923765, “Structural Design, Synthesis, and Preliminary Biological Evaluation of Novel Dihomooxacalix[4]arene-Based Anti-tumor Agents” (Frontiers in Chemistry, 2019) are melting point values, retold here.

The structures appear in SMILES notation.

One may read the melting point as the temperature, or range, at which the solid turns liquid. For `CC(C)(C)c1cc2c(O)c(c1)Cc1cc(C(C)(C)C)cc(c1OCC(=O)NCCO)Cc1cc(C(C)(C)C)cc(c1O)Cc1cc(C(C)(C)C)cc(c1OCC(=O)NCCc1ccccc1)COC2` [Compound 4R, 7,13,19,25-tetra-tert-butyl-28,30-di-hydroxy-27-(N-phenethyl-aminocarbonylmethoxyl)-29-(N-(2-hydroxyethyl)-aminocarbonylmethoxyl)-2,3-dihomo-3-oxacalix[4]arene], the melting point lay in the range of 120.7 to 123.3 °C. In the case of `CC(C)(C)c1cc2c(O)c(c1)Cc1cc(C(C)(C)C)cc(c1OCC(=O)NCCO)Cc1cc(C(C)(C)C)cc(c1O)Cc1cc(C(C)(C)C)cc(c1OCC(=O)N(CCO)CCO)COC2` [Compound 4S, 7,13,19,25-tetra-tert-butyl-28,30-di-hydroxy-27-(N,N-bis(2-hydroxyethyl)-aminocarbonylmethoxyl)-29-(N-(2-hydroxyethyl)-aminocarbonylmethoxyl)-2,3-dihomo-3-oxacalix[4]arene], the melting point was 144.4 to 146.2 °C. Under `CC(C)(C)c1cc2c(O)c(c1)Cc1cc(C(C)(C)C)cc(c1OCC(=O)NCCO)Cc1cc(C(C)(C)C)cc(c1O)Cc1cc(C(C)(C)C)cc(c1OCC(=O)NC1CCCC1)COC2` [Compound 4Q, 7,13,19,25-tetra-tert-butyl-28,30-di-hydroxy-27-(N-clopentyl-aminocarbonylmethoxyl)-29-(N-(2-hydroxyethyl)-aminocarbonylmethoxyl)-2,3-dihomo-3-oxacalix[4]arene] stands 138.3 to 140.5 °C.
